Measurements published in patent publication US8648045B2, “VDAC1 compositions and methods of use thereof for regulating apoptosis” (Ben Gurion University of the Negev Research and Development …, priority 2005, dated 2014).

What was measured:
U937 cells = experiment: Apoptotic cell death of U937 cells transfected with native or mutated mVDAC1, with/without RuR (acridine orange/ethidium bromide staining); format: cell-based, human
Procedure: Logarithmically-growing U937 cells were resuspended in RPMI 1640 supplemented with 10% FCS, 100 U/ml penicillin and […] streptomycin at a concentration of 2.5×10^7 cells/ml. Cells were transfected to express rat or murine VDAC1 using the vectors pEGFP, pEGFP-VDAC1, pEGFP-E72Q-mVDAC1, pE-mVDAC1 or pE-E72Q-mVDAC1. Transfection of the U937 cells was performed by electroporation with a single pulse from a Bio-Rad micropulser II with a capacitance extender unit (200 V, […]). Cells were incubated on ice for 10 min before and after transfection, and then resuspended in 20 ml of RPMI 1640 supplemented with 10% FCS, 1 mM l-glutamine, 100 U/ml penicillin and […] streptomycin. […] GFP-positive cells were viewed under a microscope using a blue filter.
Cells were plated at a density of 5.4×10^4 cells/cm^2 in 24-well plates, washed once with PBS and placed in serum-free medium. Cells were then incubated with or without RuR or Ru360. Cells were also treated with […] staurosporine (STS) to induce apoptosis and analyzed for viability 3, 5 and 7 hrs after STS addition. Treatments with curcumin (120 μM) or As2O3 (20 μM) were carried out for 48 hrs.
Fifty six (56) hr after transfection, cells were exposed for 20 hr to RuR (1 μM) and cell viability was analyzed using acridine orange/ethidium bromide staining. In each independent experiment, approximately 250 cells were counted for each including early and late apoptotic cells. Data shown in FIG. 5 and Table 2 are the mean±SEM (n=3).

[1] = target: T1, recombinant native mVDAC1 (Mus musculus, UniProt Q60932); experiment: VDAC channel recording in planar lipid bilayer (PLB); format: biochemical; conditions: RuR; PLB, voltage stepped 0 mV to −20 mV; mean±SD, n=9
T1 construct: made in house; host or cells: yeast (purified from mitochondria of yeast expressing mVDAC1)
Procedure: (§1) Native and mutated mVDAC1 were extracted with lauryldimethylamine N-oxide (LDAO) from mitochondria isolated from yeast expressing various VDACs, and purified by chromatography on hydroxyapatite followed by carboxymethyl (CM)-cellulose where LDAO was replaced by β-OG (β-octylglucoside).
(§2) Reconstitution of purified VDAC into a planar lipid bilayer (PLB) multi-channel current recording and data analyses were carried as follows. Briefly, PLB were prepared from soybean asolactin dissolved in n-decane (50 mg/ml) in a chamber containing 10 mM HEPES/KOH pH 7.4 and 0.5 or 1M NaCl (cis/trans). Only PLBs with a resistance greater than 100 GΩ were used. Purified VDAC (about 1 ng) was added to the chamber defined as the cis side. After one or a few channels inserted into the PLB, excess protein was removed by perfusion of the cis chamber with 20 volumes of a solution (with the same composition as before perfusion), in order to prevent further protein incorporation. Currents were recorded under voltage-clamp mode using a Bilayer Clamp amplifier (Warner Instrument, USA). The currents were measured with respect to the trans side of the membrane (ground). The currents were low-pass filtered at 1 kHz, using a Bessal filter (Frequency Devices, USA) and digitized on-line using a Digidata 1200 interface board and pCLAMP 6 software (Axon Instruments). Sigma Plot 2000 scientific software was used for data analyses. Experiments were performed at 23-25° C.
(§3) FIG. 1A: Purified recombinant native or E72Q-mutated mVDAC1 was reconstituted into a PLB (planar lipid bilayer) in symmetrical solutions of 0.5 M NaCl. Currents through VDAC1 channel in response to a voltage step from zero to −20 mV were recorded before and 5 min after the addition of HK-I (28.6 mU/ml). The dashed lines indicate the zero-current level. […] FIG. 1C: Cytochrome c release was assayed, using a monoclonal anti-cytochrome c antibody, in the absence or the presence of HK-I (1 U/ml), chymotrypsin-treated HK-I (1 U/ml) or CsA (10 micro M).
(§4) RuR, known to interact with several Ca^2+ binding proteins and to inhibit Ca^2+ transport in mitochondria, inhibited channel activity of native but not of E72Q-mutated VDAC1 (FIG. 5E). Purified recombinant native and E72Q-mVDAC1 variant were reconstituted into a planar lipid bilayer (PLB) and the currents produced in response to voltages stepped from a holding potential of 0 mV to −20 mV were recorded. […] The level of inhibition calculated from […] different experiments was 89.2±2.8% (mean±SD, n=9). In contrast, the channel activity of E72Q-mVDAC1 was not inhibited by RuR in all ten experiments.

E72Q-mVDAC1 = target: T2, E72Q-mVDAC1 (Mus musculus, UniProt Q60932, E72Q); experiment: as above; format: biochemical; conditions: PLB, 0 mV to −20 mV; all ten experiments
T2 construct: made in house; host or cells: yeast (purified from mitochondria of yeast expressing mutated mVDAC1)
Procedure: as §1, §2, §3, §4

mitochondrial bound HK-I = target: T3, mitochondrial bound HK-I (Rattus norvegicus, UniProt P05708); experiment: Detachment of mitochondria-bound HK-I; format: biochemical; conditions: rat brain mitochondria; HK-I activity in the supernatant
T3 construct: from tissue; host or cells: rat brain mitochondria
T3 sequence (P05708 1-918): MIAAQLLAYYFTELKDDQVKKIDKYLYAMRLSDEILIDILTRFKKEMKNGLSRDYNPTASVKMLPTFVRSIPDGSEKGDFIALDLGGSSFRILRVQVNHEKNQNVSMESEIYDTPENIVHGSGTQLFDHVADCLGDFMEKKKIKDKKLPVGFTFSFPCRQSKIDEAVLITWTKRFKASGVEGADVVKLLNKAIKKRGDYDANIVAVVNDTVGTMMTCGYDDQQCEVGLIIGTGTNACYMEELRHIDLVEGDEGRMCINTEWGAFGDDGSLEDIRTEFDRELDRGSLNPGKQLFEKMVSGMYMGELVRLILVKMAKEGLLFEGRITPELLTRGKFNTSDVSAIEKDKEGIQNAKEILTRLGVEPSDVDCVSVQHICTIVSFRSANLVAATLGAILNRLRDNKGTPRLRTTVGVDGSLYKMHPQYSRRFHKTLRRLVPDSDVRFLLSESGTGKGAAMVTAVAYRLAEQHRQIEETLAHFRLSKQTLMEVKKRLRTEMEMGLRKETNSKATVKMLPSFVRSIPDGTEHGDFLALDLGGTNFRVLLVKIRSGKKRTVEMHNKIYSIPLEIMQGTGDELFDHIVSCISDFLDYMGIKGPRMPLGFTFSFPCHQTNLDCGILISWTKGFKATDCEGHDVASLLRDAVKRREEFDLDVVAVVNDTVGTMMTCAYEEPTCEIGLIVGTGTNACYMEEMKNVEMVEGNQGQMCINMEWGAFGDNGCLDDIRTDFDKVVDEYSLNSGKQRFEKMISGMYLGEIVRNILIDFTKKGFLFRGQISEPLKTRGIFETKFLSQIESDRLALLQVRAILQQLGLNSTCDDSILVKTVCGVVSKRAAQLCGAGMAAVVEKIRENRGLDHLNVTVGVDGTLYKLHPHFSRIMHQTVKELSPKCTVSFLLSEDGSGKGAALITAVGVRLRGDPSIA

[2] = tested on: permeability transition pore (PTP); experiment: PTP opening monitored by Ca2+ accumulation and mitochondrial swelling; format: biochemical, rat; conditions: LP1 0.1 mM or 0.3 mM; brain HK-I 0.25 U/ml pre-incubated 10 min with LP1
Procedure: Ca^2+ uptake by freshly prepared rat liver mitochondria (0.5 mg/ml) was assayed for 1 to 20 minutes at 30° C. in the presence of 225 mM mannitol, 75 mM sucrose, 120 μM CaCl2 (containing 3×10^4 cpm/nmol [^45Ca^2+]), 5 mM HEPES/KOH, 5 mM succinate and 0.1 mM Pi, pH 7.0. Uptake of ^45Ca^2+ was terminated by rapid Millipore filtration followed by a wash with 5 ml of 150 mM KCl.
Ca^2+-induced mitochondria large amplitude swelling was assayed in freshly-prepared mitochondria under the same conditions as for Ca^2+ accumulation, except that the temperature was 24° C. Cyclosporine A (CsA)-sensitive mitochondrial swelling was initiated upon addition of Ca^2+ (0.2 mM) to the sample. Absorbance changes at 520 nm were monitored every 15-20 sec with an Ultraspec 2100 spectrophotometer.
The failure of non-binding species of HK, such as yeast HK, or trypsin- or chymotrypsin-treated HK-I (FIG. 2D) to prevent PTP opening, confirmed the specificity of the HK-I effect, and of the requirement of the HK-I N-terminal region for its interaction with VDAC.
Mitochondrial swelling was assayed in the absence (control ●) or the presence of HK-I (gray ●) and in presence HK-I pre-incubated with peptide LP1. Mitochondrial swelling was assayed as in FIG. 2 in the absence and the presence of peptide LP1 (0.1 mM or 0.3 mM), brain HK-I (0.25 U/ml) or with HK-I pre-incubated for 10 min with LP1. […]

T2 sequence (Q60932 14-296 E72Q limits assumed): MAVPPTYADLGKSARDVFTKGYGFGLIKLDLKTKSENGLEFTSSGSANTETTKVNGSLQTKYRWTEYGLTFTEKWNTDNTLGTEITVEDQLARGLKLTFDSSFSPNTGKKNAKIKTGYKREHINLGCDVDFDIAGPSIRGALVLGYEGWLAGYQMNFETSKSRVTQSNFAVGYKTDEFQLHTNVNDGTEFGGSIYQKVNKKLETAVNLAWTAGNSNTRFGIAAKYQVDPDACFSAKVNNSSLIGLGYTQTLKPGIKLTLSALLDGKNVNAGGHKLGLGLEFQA
T1 sequence (Q60932 14-296 limits assumed): as the sequence (Q60932 14-296 E72Q limits assumed) above, with Q59E counted along it

## N.N.N.N.N.N.N.N.N.N.N.N.N.N.[Cl-].[Cl-].[Cl-].[Cl-].[Cl-].[Cl-].[O-2].[O-2].[Ru+3].[Ru+3].[Ru+4] [RuR, ruthenium red]
U937 cells; Control (non-transfected) U937 cells, RuR 1 μM
  Apoptotic cells, % +RuR: 9.1 ± 2.1%
U937 cells; RuR
  effect on apoptotic death in control or plasmid-transfected cells: had no effect or even slightly increased apoptotic death
U937 cells; cells expressing E72Q-mVDAC1, E72Q-mVDAC1-GFP or E65Q-mVDAC1
  protective effect of RuR on VDAC1 over-expression-induced cell death: not observed
U937 cells; cells expressing native mVDAC1 exposed to RuR
  increase in the total level of VDAC1 protein: over 5 fold
U937 cells; cells over-expressing VDAC1 or VDAC1-GFP, 1 μM RuR for 18 hr or 5 μM RuR for 5 hr
  protection against apoptotic cell death: 64-72%
[1]
  level of inhibition of channel activity: 89.2±2.8%
E72Q-mVDAC1
  inhibition of channel activity by RuR: not inhibited

## WTEYGLTFTEKWNTD [Peptide LP1, 15 amino acid peptide derived from the first cytosolic β-loop of VDAC1, amino acids 63-78]
Mitochondrial bound HK-I
  detachment of mitochondria-bound HK-I: able to release mitochondrial bound HK-I
[2]
  effect on HK-I prevention of PTP opening: eliminates the HK-I prevention of PTP opening
